Read-outs that look alike come from different tables or passages of the source.
Tests used:
[1] = test system: inhA promoter mutant INH-resistant Mtb clinical isolate; assay type: cell-based, Mycobacterium tuberculosis
[2] = test system: katG S315T mutant INH-resistant Mtb clinical isolate; assay type: cell-based, Mycobacterium tuberculosis
[3] = molecular target: enoyl acyl carrier protein reductase (InhA) (Mycobacterium tuberculosis, UniProt P9WGR1); assay type: biochemical
Chain of enoyl acyl carrier protein reductase (InhA) (P9WGR1 whole entry, looked up): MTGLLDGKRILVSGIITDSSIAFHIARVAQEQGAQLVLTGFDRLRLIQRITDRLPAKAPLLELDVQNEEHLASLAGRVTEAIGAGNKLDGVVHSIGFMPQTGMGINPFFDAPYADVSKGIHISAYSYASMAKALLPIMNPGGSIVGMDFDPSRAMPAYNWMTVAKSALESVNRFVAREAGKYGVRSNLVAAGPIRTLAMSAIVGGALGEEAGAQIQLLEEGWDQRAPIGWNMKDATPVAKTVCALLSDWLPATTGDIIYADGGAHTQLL

## 3-((2-Isonicotinoylhydrazono)methyl)phenyl 2,4,6-trimethylbenzenesulfonate [SIH3]
[1]
  MIC inhA +: 6.25 µM
[2]
  MIC katG +: 50 µM

## 3-((2-Isonicotinoylhydrazono)methyl)phenyl 2,5-dichlorobenzenesulfonate [SIH8]
[1]
  MIC inhA +: 3.12 µM
[2]
  MIC katG +: 12.5 µM

## 3-((2-Isonicotinoylhydrazono)methyl)phenyl 3-nitrobenzenesulfonate [SIH10]
[3]; 50 µM compound
  % Inhibition of InhA: 17%
[1]
  MIC inhA +: 3.12 µM
[2]
  MIC katG +: 12.5 µM

## 3-((2-Isonicotinoylhydrazono)methyl)phenyl 4-(tert-butyl)benzenesulfonate [SIH2]
[3]; 50 µM compound
  % Inhibition of InhA: 25%
[1]
  MIC inhA +: 1.56 µM
[2]
  MIC katG +: 25 µM

## 3-((2-Isonicotinoylhydrazono)methyl)phenyl 4-acetamidobenzenesulfonate [SIH11]
[3]; 50 µM compound
  % Inhibition of InhA: 10%
[1]
  MIC inhA +: 3.12 µM
[2]
  MIC katG +: 12.5 µM

## 3-((2-Isonicotinoylhydrazono)methyl)phenyl 4-bromobenzenesulfonate [SIH5]
[3]; 50 µM compound
  % Inhibition of InhA: 33%
[2]
  MIC katG +: 25 µM

## 3-((2-Isonicotinoylhydrazono)methyl)phenyl 4-chlorobenzenesulfonate [SIH6]
[3]; 50 µM compound
  % Inhibition of InhA: 23%
[2]
  MIC katG +: >100 µM

## 3-((2-Isonicotinoylhydrazono)methyl)phenyl 4-iodobenzenesulfonate [SIH7]
[3]; 50 µM compound
  % Inhibition of InhA: 41%
[1]
  MIC inhA +: 6.25 µM
[2]
  MIC katG +: >100 µM

## 3-((2-Isonicotinoylhydrazono)methyl)phenyl 4-methoxybenzenesulfonate [SIH4]
[3]; 50 µM compound
  % Inhibition of InhA: 5%
[1]
  MIC inhA +: 1.56 µM
[2]
  MIC katG +: 6.25 µM

## 3-((2-Isonicotinoylhydrazono)methyl)phenyl 4-methylbenzenesulfonate [SIH1]
[3]; 50 µM compound
  % Inhibition of InhA: 12%
[1]
  MIC inhA +: 1.56 µM
[2]
  MIC katG +: 50 µM

## 3-((2-Isonicotinoylhydrazono)methyl)phenyl 4-nitrobenzenesulfonate [SIH9]
[3]; 50 µM compound
  % Inhibition of InhA: 8%
[1]
  MIC inhA +: 3.12 µM
[2]
  MIC katG +: 25 µM

## 3-((2-Isonicotinoylhydrazono)methyl)phenyl [1,1′-biphenyl]-4-sulfonate [SIH12]
[3]; 50 µM compound
  % Inhibition of InhA: 31%
[1]
  MIC inhA +: 3.12 µM
[2]
  MIC katG +: 12.5 µM

## 3-((2-Isonicotinoylhydrazono)methyl)phenyl quinoline-8-sulfonate [SIH13]
[3]; 50 µM
  % Inhibition of InhA: 22%
[1]
  MIC inhA +: 3.12 µM
[2]
  MIC katG +: 12.5 µM

## NNC(=O)c1ccncc1 [Isoniazid, isonicotinic acid hydrazide, reference compound]
[1]
  MIC inhA +: 1.56 µM
[2]
  MIC katG +: 6.25 µM
